From the supplement of paper PMC10307832

Key:
Test in all cases: relative viability (nuclei count vs DMSO), 5 days (fraction); higher = more cells survive
Ibrutinib + Pictilisib = compound: C=CC(=O)N1CCC[C@@H](n2nc(-c3ccc(Oc4ccccc4)cc3)c3c(N)ncnc32)C1 [Ibrutinib] + CS(=O)(=O)N1CCN(Cc2cc3nc(-c4cccc5[nH]ncc45)nc(N4CCOCC4)c3s2)CC1 [Pictilisib] (partner 1 µM)
How it was run: (§1)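 Lung cancer cell lines were pin-tool dosed in 1536-well plates on the day after seeding, with either a lone drug or a fixed anchor-drug dose plus five library-drug doses (not always all listed) in √10 steps. Nuclei were counted on 4× images after 5 days. Relative viability is the ratio of treated-well to vehicle-well nuclei counts, with each value a median of duplicate plates.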

PAC-1 + Linsitinib = compound: C=CCc1cccc(/C=N/NC(=O)CN2CCN(Cc3ccccc3)CC2)c1O [PAC-1] + C[C@]1(O)C[C@@H](c2nc(-c3ccc4ccc(-c5ccccc5)nc4c3)c3c(N)nccn32)C1 [Linsitinib] (partner 1 µM)
How it was run: as §1

Ibrutinib + Palbociclib = compound: C=CC(=O)N1CCC[C@@H](n2nc(-c3ccc(Oc4ccccc4)cc3)c3c(N)ncnc32)C1 [Ibrutinib] + CC(=O)c1c(C)c2cnc(Nc3ccc(N4CCNCC4)cn3)nc2n(C2CCCC2)c1=O [Palbociclib] (partner 0.5 µM)
How it was run: as §1

PAC-1 + Navitoclax = compound: C=CCc1cccc(/C=N/NC(=O)CN2CCN(Cc3ccccc3)CC2)c1O [PAC-1] + CC1(C)CCC(c2ccc(Cl)cc2)=C(CN2CCN(c3ccc(C(=O)NS(=O)(=O)c4ccc(N[C@H](CCN5CCOCC5)CSc5ccccc5)c(S(=O)(=O)C(F)(F)F)c4)cc3)CC2)C1 [Navitoclax] (partner 0.5 µM)
How it was run: as §1

Cell Line | relative viability (Ibrutinib + Pictilisib; first compound 0.01581 µM) | relative viability (Ibrutinib + Pictilisib; first compound 0.05 µM) | relative viability (Ibrutinib + Pictilisib; first compound 0.1581 µM) | relative viability (Ibrutinib + Pictilisib; first compound 0.5 µM) | relative viability (PAC-1 + Linsitinib; first compound 0.02 µM) | relative viability (PAC-1 + Linsitinib; first compound 0.06325 µM) | relative viability (PAC-1 + Linsitinib; first compound 0.2 µM) | relative viability (PAC-1 + Linsitinib; first compound 2 µM) | relative viability (Ibrutinib + Palbociclib; first compound 0.005 µM) | relative viability (Ibrutinib + Palbociclib; first compound 0.01581 µM) | relative viability (Ibrutinib + Palbociclib; first compound 0.05 µM) | relative viability (Ibrutinib + Palbociclib; first compound 0.1581 µM) | relative viability (Ibrutinib + Palbociclib; first compound 0.5 µM) | relative viability (PAC-1 + Navitoclax; first compound 0.02 µM) | relative viability (PAC-1 + Navitoclax; first compound 0.06325 µM) | relative viability (PAC-1 + Navitoclax; first compound 0.2 µM) | relative viability (PAC-1 + Navitoclax; first compound 2 µM) | relative viability (Ibrutinib + Pictilisib; first compound 0.005 µM)
HCC-366 | 0.125 | 0.141 | 0.124 | 0.14 | 0.587 | 0.699 | 0.441 | 0.772 | 0.439 | 0.405 | 0.38 | 0.385 | 0.428 | 1.13 | 1.01 | 1.1 | 1.09 | 
HCC-827 | 0.909 | 1.02 | 1.08 | 0.458 | 0.981 | 0.966 | 0.932 | 0.942 | 0.471 | 0.438 | 0.453 | 0.475 | 0.17 | 1.04 | 0.986 | 0.983 | 0.989 | 0.916
HOP-62 | 0.506 | 0.67 | 0.626 | 0.877 | 1.01 | 0.927 | 0.977 | 0.939 | 0.542 | 0.442 | 0.42 | 0.459 | 0.516 | 1.04 | 1.02 | 0.58 | 0.988 | 0.379
IA-LM | 0.231 | 0.312 | 0.411 | 0.22 | 0.771 | 0.716 | 0.639 | 0.58 |  |  |  |  |  | 0.78 | 0.92 | 0.632 | 0.657 | 0.203
LC-2-ad | 0.19 | 0.53 | 0.525 | 0.299 | 0.849 | 0.825 | 0.782 | 0.78 | 0.588 | 0.513 | 0.505 | 0.542 | 0.505 | 0.464 | 0.427 | 0.35 | 0.331 | 0.335
LCLC-97TM1 | 0.203 | 0.263 | 0.156 | 0.18 |  | 0.196 | 0.196 | 0.165 | 0.222 | 0.226 | 0.284 | 0.241 | 0.161 |  | 0.395 | 0.307 | 0.62 | 0.114
LCLC-103H | 0.535 | 0.557 | 0.517 | 0.653 | 1.04 | 1.13 | 1.14 | 0.98 | 0.498 | 0.506 | 0.528 | 0.481 | 0.469 |  |  |  |  | 0.72
LK-2 | 0.472 | 0.532 | 0.494 | 0.488 | 0.49 | 0.807 | 0.537 | 0.621 | 0.469 | 0.662 | 0.586 | 0.542 | 0.579 | 0.816 | 0.805 | 0.88 | 0.845 | 
LOU-NH91 | 0.475 | 0.512 | 0.487 | 0.487 | 0.925 | 0.964 | 0.906 | 0.915 | 0.563 | 0.499 | 0.567 | 0.56 | 0.513 | 0.651 | 0.718 | 0.672 | 0.673 | 0.451
LU99A | 0.34 | 0.355 | 0.324 | 0.336 | 0.562 | 0.514 | 0.518 | 0.489 | 0.339 | 0.391 | 0.41 | 0.443 | 0.391 | 0.939 | 0.836 | 0.717 | 0.801 | 0.274
LXF-289 | 0.724 | 0.802 | 0.794 | 0.758 | 0.972 | 0.992 | 0.946 | 0.909 | 0.607 | 0.598 | 0.582 | 0.556 | 0.606 | 0.944 | 0.948 | 0.932 | 0.927 | 0.733
NCI-H358 | 0.372 | 0.291 | 0.315 | 0.264 | 0.657 | 0.786 | 0.709 | 0.506 | 0.121 | 0.169 |  | 0.189 | 0.11 |  |  |  |  | 0.28
NCI-H522 |  |  |  |  |  |  |  |  | 0.865 | 1.05 | 0.861 | 1.01 | 0.664 |  |  |  |  | 
NCI-H596 | 0.406 | 0.442 | 0.392 | 0.393 | 0.891 | 0.977 | 1.08 | 1.03 |  |  |  |  |  | 0.887 | 0.932 | 0.951 | 0.951 | 0.43
NCI-H650 | 0.883 |  | 0.973 | 0.678 | 0.887 | 0.912 | 0.761 | 0.676 | 0.399 | 0.303 | 0.415 | 0.414 | 0.358 |  |  |  |  | 
NCI-H661 | 0.413 | 0.308 | 0.358 | 0.284 | 0.432 | 0.561 | 0.52 | 0.532 | 0.365 | 0.337 | 0.332 | 0.366 | 0.304 |  |  |  |  | 0.302
NCI-H1299 | 0.555 | 0.773 | 0.699 | 0.854 | 0.947 | 0.963 | 0.953 | 0.96 |  |  |  |  |  | 1.04 | 1.03 | 1.06 | 1.04 | 0.571
NCI-H1563 | 0.635 | 0.677 | 0.607 | 0.602 | 1.15 | 1.32 | 1.28 | 1.19 |  |  |  |  |  |  |  |  |  | 0.663
NCI-H1648 |  |  |  |  |  |  |  |  | 0.279 | 0.27 | 0.259 | 0.297 | 0.252 |  |  |  |  | 
NCI-H1650 | 0.52 | 0.506 | 0.515 | 0.476 |  |  |  |  | 0.382 | 0.305 | 0.314 | 0.436 | 0.243 | 1.18 | 1.15 | 1.22 | 1.04 | 0.493
NCI-H1703 | 0.233 | 0.205 | 0.241 | 0.222 | 0.646 | 0.423 | 0.765 | 0.932 |  |  |  |  |  | 1.4 | 0.998 | 0.958 | 0.959 | 
NCI-H2170 | 0.312 | 0.243 | 0.261 | 0.169 |  |  |  |  | 0.329 | 0.296 | 0.259 | 0.385 | 0.139 | 0.637 | 0.622 | 0.569 | 0.461 | 0.234
NCI-H2342 |  |  |  |  |  |  |  |  | 0.495 | 0.519 | 0.496 | 0.486 | 0.502 |  |  |  |  | 
SW 900 |  |  |  |  |  |  |  |  | 0.572 | 0.437 | 0.552 | 0.511 | 0.479 |  |  |  |  | 
